{"source": "patent US20130230485A1", "about": "“Methods for Treating Patients Undergoing Multi-Cycle Chemotherapy” (priority 2012, published 2013)", "key": {"[1]": {"test_system": "patients with recurrent ovarian cancer receiving gemcitabine and a platin", "test": "Phase 2 study: pharmacodynamic effects on peripheral platelet counts and ANC", "type": "in vivo, human", "source_text": "(§1) Following Institutional Review Board protocol approval and patient signature of an informed consent form, eligible patients were randomized in a 1:1:1 ratio to receive 100 mcg/kg/day TXA127, 300 mcg/kg/day TXA127, or placebo with gemcitabine plus carboplatin or cisplatin. The randomization was stratified by the patients' intended chemotherapy regimen (see below). The Investigator, patient, and Sponsor were blinded to the treatment assignment. Treatment consisted of up to six consecutive 21-day cycles of one of the following chemotherapy regimens:\n(§2) Regimen A • Intravenous cisplatin therapy at a dose between 30 and 50 mg/m^2 (inclusive) given on Day 1 of the cycle • Intravenous gemcitabine at a dose of 800 mg/m^2 given on Day 1 after cisplatin and on Day 8 of the cycle • Regimen B • Intravenous gemcitabine at a dose of 1,000 mg/m^2 given on Days 1 and 8 of the cycle • Intravenous carboplatin AUC range of 4-6 given on Day 1 of the cycle after gemcitabine\n(§3) Study drug (TXA127 or placebo) was administered subcutaneously during each treatment cycle once daily for 5 consecutive days following the first chemotherapy agent (Days 2-6) and for 7 consecutive days following the second chemotherapy agent (Days 9-15). At Baseline, End-of-Treatment and weekly throughout each treatment cycle, blood specimens were collected for determination of hematologic variables. Hematologic responses were evaluated based on the National Cancer Institute Common Terminology Criteria for Adverse Events (NCl-CTCAE), Version 3.0.\nThe following parameters were evaluated to assess the pharmacodynamic effects of TXA127 on peripheral platelet counts: nadir platelet count, maximal platelet count, and maximum percentage increase and decrease from baseline."}, "[2]": {"test_system": "patients with recurrent ovarian cancer receiving gemcitabine and a platin", "test": "Phase 2 study: adverse events / safety analysis", "type": "in vivo, human", "source_text": "as §1, §2, §3\nThirty-two patients who underwent randomization were included in the efficacy analysis according to their randomly assigned treatment group (intention-to-treat principle). Two additional patients were excluded from this analysis: one patient treated with 100 mcg/kg TXA127 was excluded due to consent withdrawal and one patient treated with 300 mcg/kg TXA127 was excluded due to disease progression. Both patients initiated a single cycle of chemotherapy and had no study drug-related adverse events. All patients were included in the safety analysis."}}, "note": "“Also recorded” adds a separate entry of the source."}
{"smiles": "CC[C@H](C)[C@H](NC(=O)[C@H](Cc1ccc(O)cc1)NC(=O)[C@@H](NC(=O)[C@H](CCCNC(=N)N)NC(=O)[C@@H](N)CC(=O)O)C(C)C)C(=O)N[C@@H](Cc1c[nH]cn1)C(=O)N1CCC[C@H]1C(=O)O", "note": "[TXA127, Asp-Arg-Val-Tyr-Ile-His-Pro]", "values": [{"measurement": "ANC relative to placebo (in words)", "setting": "[1]; 100 mcg/kg TXA127", "result": "decrease in the nadir ANC relative to placebo; also recorded: significant reduction in ANC"}, {"measurement": "maximal percentage decrease in ANC post-baseline", "setting": "[1]; 100 mcg/kg TXA127", "result": 85, "unit": "%"}, {"measurement": "maximal percentage decrease in ANC post-baseline", "setting": "[1]; 300 mcg/kg TXA127", "result": 78, "unit": "%"}, {"measurement": "Frequency of Adverse Events: Abdominal Distension", "setting": "[2]; 100 mcg group (11 patients)", "result": 1}, {"measurement": "Frequency of Adverse Events: Abdominal Pain", "setting": "[2]; 100 mcg group (11 patients)", "result": 4}, {"measurement": "Frequency of Adverse Events: Anaemia", "setting": "[2]; 100 mcg group (11 patients)", "result": 4}, {"measurement": "Frequency of Adverse Events: Arthralgia", "setting": "[2]; 100 mcg group (11 patients)", "result": 1}, {"measurement": "Frequency of Adverse Events: Back Pain", "setting": "[2]; 100 mcg group (11 patients)", "result": 5}, {"measurement": "Frequency of Adverse Events: Constipation", "setting": "[2]; 100 mcg group (11 patients)", "result": 7}, {"measurement": "Frequency of Adverse Events: Cough", "setting": "[2]; 100 mcg group (11 patients)", "result": 0}, {"measurement": "Frequency of Adverse Events: Decreased Appetite", "setting": "[2]; 100 mcg group (11 patients)", "result": 3}, {"measurement": "Frequency of Adverse Events: Dizziness", "setting": "[2]; 100 mcg group (11 patients)", "result": 3}, {"measurement": "Frequency of Adverse Events: Dyspepsia", "setting": "[2]; 100 mcg group (11 patients)", "result": 4}, {"measurement": "Frequency of Adverse Events: Dyspnea", "setting": "[2]; 100 mcg group (11 patients)", "result": 0}, {"measurement": "Frequency of Adverse Events: Dysuria", "setting": "[2]; 100 mcg group (11 patients)", "result": 2}, {"measurement": "Frequency of Adverse Events: Epistaxis", "setting": "[2]; 100 mcg group (11 patients)", "result": 0}, {"measurement": "Frequency of Adverse Events: Fatigue", "setting": "[2]; 100 mcg group (11 patients)", "result": 6}, {"measurement": "Frequency of Adverse Events: Headache", "setting": "[2]; 100 mcg group (11 patients)", "result": 5}, {"measurement": "Frequency of Adverse Events: Hypersensitivity", "setting": "[2]; 100 mcg group (11 patients)", "result": 1}, {"measurement": "Frequency of Adverse Events: Leukopenia", "setting": "[2]; 100 mcg group (11 patients)", "result": 3}, {"measurement": "Frequency of Adverse Events: Nausea", "setting": "[2]; 100 mcg group (11 patients)", "result": 7}, {"measurement": "Frequency of Adverse Events: Neutropenia", "setting": "[2]; 100 mcg group (11 patients)", "result": 5}, {"measurement": "Frequency of Adverse Events: Oropharyngeal Pain", "setting": "[2]; 100 mcg group (11 patients)", "result": 1}, {"measurement": "Frequency of Adverse Events: Pyrexia", "setting": "[2]; 100 mcg group (11 patients)", "result": 3}, {"measurement": "Frequency of Adverse Events: Rash", "setting": "[2]; 100 mcg group (11 patients)", "result": 1}, {"measurement": "Frequency of Adverse Events: Thrombocytopenia", "setting": "[2]; 100 mcg group (11 patients)", "result": 5}, {"measurement": "Frequency of Adverse Events: Vomiting", "setting": "[2]; 100 mcg group (11 patients)", "result": 4}, {"measurement": "thrombocytosis following treatment", "setting": "[2]; 100 mcg/kg TXA127", "result": "One patient experienced thrombocytosis"}, {"measurement": "patients who discontinued study drug due to a treatment-emergent adverse event", "setting": "[2]; 100 mcg/kg group", "result": "Two"}, {"measurement": "Frequency of Adverse Events: Abdominal Distension", "setting": "[2]; 300 mcg group (13 patients)", "result": 4}, {"measurement": "Frequency of Adverse Events: Abdominal Pain", "setting": "[2]; 300 mcg group (13 patients)", "result": 1}, {"measurement": "Frequency of Adverse Events: Anaemia", "setting": "[2]; 300 mcg group (13 patients)", "result": 5}, {"measurement": "Frequency of Adverse Events: Arthralgia", "setting": "[2]; 300 mcg group (13 patients)", "result": 1}, {"measurement": "Frequency of Adverse Events: Back Pain", "setting": "[2]; 300 mcg group (13 patients)", "result": 5}, {"measurement": "Frequency of Adverse Events: Constipation", "setting": "[2]; 300 mcg group (13 patients)", "result": 5}, {"measurement": "Frequency of Adverse Events: Cough", "setting": "[2]; 300 mcg group (13 patients)", "result": 2}, {"measurement": "Frequency of Adverse Events: Decreased Appetite", "setting": "[2]; 300 mcg group (13 patients)", "result": 0}, {"measurement": "Frequency of Adverse Events: Dizziness", "setting": "[2]; 300 mcg group (13 patients)", "result": 3}, {"measurement": "Frequency of Adverse Events: Dyspepsia", "setting": "[2]; 300 mcg group (13 patients)", "result": 2}, {"measurement": "Frequency of Adverse Events: Dyspnea", "setting": "[2]; 300 mcg group (13 patients)", "result": 5}, {"measurement": "Frequency of Adverse Events: Dysuria", "setting": "[2]; 300 mcg group (13 patients)", "result": 1}, {"measurement": "Frequency of Adverse Events: Epistaxis", "setting": "[2]; 300 mcg group (13 patients)", "result": 1}, {"measurement": "Frequency of Adverse Events: Fatigue", "setting": "[2]; 300 mcg group (13 patients)", "result": 7}, {"measurement": "Frequency of Adverse Events: Headache", "setting": "[2]; 300 mcg group (13 patients)", "result": 5}, {"measurement": "Frequency of Adverse Events: Hypersensitivity", "setting": "[2]; 300 mcg group (13 patients)", "result": 2}, {"measurement": "Frequency of Adverse Events: Leukopenia", "setting": "[2]; 300 mcg group (13 patients)", "result": 2}, {"measurement": "Frequency of Adverse Events: Nausea", "setting": "[2]; 300 mcg group (13 patients)", "result": 9}, {"measurement": "Frequency of Adverse Events: Neutropenia", "setting": "[2]; 300 mcg group (13 patients)", "result": 8}, {"measurement": "Frequency of Adverse Events: Oropharyngeal Pain", "setting": "[2]; 300 mcg group (13 patients)", "result": 1}, {"measurement": "Frequency of Adverse Events: Pyrexia", "setting": "[2]; 300 mcg group (13 patients)", "result": 2}, {"measurement": "Frequency of Adverse Events: Rash", "setting": "[2]; 300 mcg group (13 patients)", "result": 5}, {"measurement": "Frequency of Adverse Events: Thrombocytopenia", "setting": "[2]; 300 mcg group (13 patients)", "result": 2}, {"measurement": "Frequency of Adverse Events: Vomiting", "setting": "[2]; 300 mcg group (13 patients)", "result": 5}, {"measurement": "patients who discontinued study drug due to a treatment-emergent adverse event", "setting": "[2]; 300 mcg/kg group", "result": "Two"}, {"measurement": "safety with these chemotherapy regimens", "setting": "[2]; up to 6 cycles of gemcitabine + platin", "result": "The safety of TXA127 was demonstrated"}]}
